Data on 15 compounds can be found in ChEMBL document CHEMBL4020732, “Synthesis, structural characterization and biological activity of novel Knoevenagel condensates on DLD-1 human colon carcinoma” (Bioorg Med Chem Lett, 2017).

A short description of experiment [1]: Antioxidant activity of the compound assessed as DPPH radical scavenging activity at 1 mM after 5 mins by spectrophotometric method. It counts as functional.
Experiment [2] can be described thus: Antioxidant activity assessed as ABTS radical scavenging activity at 100 uM after 5 mins by spectrophotometric method. In kind it is functional.
The nature of experiment [3]: Antioxidant activity of the compound assessed as DPPH radical scavenging activity after 5 mins by spectrophotometric method. In kind it is functional. On the set-up: unit not given here.
Experiment [4] is described as follows: Antioxidant activity assessed as ABTS radical scavenging activity after 5 mins by spectrophotometric method. It counts as functional. On the set-up: unit not given here.
Experiment [5] relates to DLD-1. Briefly: Cytotoxicity against human DLD1 cells by MTT assay. In kind it is functional, cell-based.
Experiment [6] concerns the target Superoxide dismutase 1/2 (Homo sapiens) (UniProt P00441+P04179). Briefly: Inhibition of SOD1/SOD2 in human DLD1 cells at 100 uM using xanthine as substrate pretreated for 24 hrs followed by substrate addition measured after 5 mins by NBT dye based spectrophotometric method. In kind it is cell-based.
For experiment [7], the target named is T1, Extracellular superoxide dismutase [Cu-Zn] (Homo sapiens) (UniProt P08294).
T1 sequence (whole entry): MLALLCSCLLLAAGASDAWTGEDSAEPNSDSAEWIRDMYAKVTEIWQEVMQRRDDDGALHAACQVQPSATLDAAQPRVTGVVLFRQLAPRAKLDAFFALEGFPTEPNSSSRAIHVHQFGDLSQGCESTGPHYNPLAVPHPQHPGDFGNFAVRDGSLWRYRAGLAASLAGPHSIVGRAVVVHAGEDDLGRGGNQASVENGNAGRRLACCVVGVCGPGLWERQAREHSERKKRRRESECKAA
Briefly: Inhibition of SOD3 in human DLD1 cells at 100 uM using xanthine as substrate pretreated for 24 hrs followed by substrate addition after 5 mins by NBT dye based spectrophotometric method. In kind it is cell-based.

The subject of experiment [8] is DLD-1. The experiment can be described thus: Down regulation of MRP1 expression in human DLD1 cells at 100 uM after 24 hrs by fluorescence assay. It counts as functional, cell-based.
Experiment [9] relates to DLD-1. Briefly: Antioxidant activity in human DLD1 cells assessed as glutathione reactivity by measuring GSH level per mg protein by ortho-phthalaldehyde probe based fluorescence spectrometric method (reference value: 2.19 +/- 0.18 nmol). It counts as functional.
The subject of experiment [10] is DLD-1. Briefly: Antioxidant activity in human DLD1 cells assessed as glutathione reactivity by measuring GSSG level per mg protein by ortho-phthalaldehyde probe based fluorescence spectrometric method (reference value: 0.69 nmol). It counts as functional.
Experiment [11] deals with DLD-1. The experiment can be described thus: Antioxidant activity in human DLD1 cells assessed as ratio of reduced glutathione to oxidized glutathione by ortho-phthalaldehyde probe based fluorescence spectrometric method (reference value: 3.19 +/- 0.2). It counts as functional.
Experiment [12] has as its system DLD-1. Briefly: Antiproliferative activity against human DLD1 cells at 100 uM after 4 to 48 hrs by Alamar blue assay. In kind it is functional, cell-based.
The nature of experiment [13]: Glutathione reactivity assessed as rate constant for total GSH loss by UV-vis spectrophotometric method.
Experiment [14] has as its target T2, Superoxide dismutase [Mn], mitochondrial (Homo sapiens) (UniProt P04179).
T2 sequence (whole entry): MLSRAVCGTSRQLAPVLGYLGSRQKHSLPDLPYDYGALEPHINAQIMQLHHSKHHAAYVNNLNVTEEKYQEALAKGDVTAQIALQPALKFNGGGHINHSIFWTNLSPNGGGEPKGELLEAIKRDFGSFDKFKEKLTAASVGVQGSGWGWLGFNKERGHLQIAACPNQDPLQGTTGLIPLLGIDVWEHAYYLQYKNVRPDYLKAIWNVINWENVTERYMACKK
Briefly: Inhibition of mitochondrial SOD2 in human DLD1 cells at 100 uM using xanthine as substrate pretreated for 24 hrs followed by substrate addition after 5 mins by NBT dye based spectrophotometric method. It counts as cell-based.

Activity calls are given as the source filed them. The rule behind the calls is not given here.

Superoxide dismutase 1/2 (Homo sapiens), sequence (P00441 whole entry, looked up, one chain of several): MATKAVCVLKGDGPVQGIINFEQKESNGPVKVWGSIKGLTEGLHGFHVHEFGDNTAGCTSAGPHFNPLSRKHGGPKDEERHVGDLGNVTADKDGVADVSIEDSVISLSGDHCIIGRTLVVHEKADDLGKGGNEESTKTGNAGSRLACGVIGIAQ

Regarding `COc1cc(/C=C/C(=O)C(=Cc2ccccc2)C(=O)/C=C/c2ccc(O)c(OC)c2)ccc1O`, the inhibition in experiment [1] was found to be 58.6%; in experiment [2], 75.1%. Moreover, the 1/IC50 in experiment [3] is 0.012; in experiment [4] it was 0.116. For the same compound, the half-maximal inhibitory concentration (IC50) in experiment [3] was found to be 84.4 µM; in experiment [4], 8.58 µM; in the experiment with DLD-1 [5] it was 5.45 µM. For the same compound, the inhibition result in [6] and in experiment [7] was “inactive” in each case. Also, the result (in the experiment with DLD-1 [8]; with DLD-1 [12]; in experiment [13]) was Active. The Activity is recorded as 4.47 nmol in the experiment on DLD-1 [9] and 1.4 nmol in the experiment with DLD-1 [10]. Moreover, the Ratio with DLD-1 [11] was determined as 3.19.

As to `C/C=C(/C)C(C)=O`, in experiment [13], the K came out at 0.779 L/mol/min.

As for `CCOc1cc(/C=C/C(=O)CC(=O)/C=C/c2ccc(O)c(OCC)c2)ccc1O` [ETHYL CURCUMIN], the inhibition in [1] was determined as 93.4%; in [2], 96.1%. In addition, the 1/IC50 in experiment [3] came to 0.041; in [4] it was 0.156. Further, the IC50 was 24.5 µM in experiment [3] and 6.4 µM in experiment [4].

For `COc1cc(/C=C/C(=O)C(=Cc2ccc(O)c(O)c2)C(=O)/C=C/c2ccc(O)c(OC)c2)ccc1O`, the inhibition in experiment [1] worked out at 92.5%; in [2] it was 98.2%. Besides, the 1/IC50 in [3] is 0.097; in [4], 0.455. For the same compound, the IC50 worked out at 10.3 µM in experiment [3], 2.2 µM in [4] and 17.6 µM in the experiment with DLD-1 [5]. Besides, the inhibition result in experiment [6] is “Active”. Further, the Activity with DLD-1 [9] came to 2.6 nmol; in the experiment on DLD-1 [10] it was 0.5 nmol. The Ratio with DLD-1 [11] is on record as 5.17. In addition, the result with DLD-1 [12] was Active. Moreover, the result in [13] was inactive.

With `COc1cc(C=C(C(=O)/C=C/c2ccc(O)c(OC)c2)C(=O)/C=C/c2ccc(O)c(OC)c2)ccc1O`, the inhibition in [1] is 59.1%; in [2] it was 97.9%. Besides, the 1/IC50 in [3] was 0.014; in [4], 0.305. The IC50 in [3] is 72.4 µM; in experiment [4], 3.28 µM; with DLD-1 [5] it was 5.06 µM. The inhibition result in experiment [6] and in [14] was “Active” in each case. For the same compound, the result (in the experiment with DLD-1 [8]; in the experiment on DLD-1 [12]; in experiment [13]) was Active. In addition, the figures for the Activity in the experiment with DLD-1 [9] and in the experiment with DLD-1 [10] were 4.56 nmol and 2.8 nmol, respectively. Also, in the experiment with DLD-1 [11], the Ratio is 1.63.

With `COc1cc(/C=C/C(=O)CC(=O)/C=C/c2ccc(O)c(OC)c2)ccc1O` [CURCUMIN], the inhibition in experiment [1] was 91.7%; in experiment [2], 95%. Besides, the 1/IC50 in experiment [3] turned out to be 0.038; in experiment [4] it was 0.177. The half-maximal inhibitory concentration (IC50) in [3] turned out to be 26.5 µM; in experiment [4], 5.66 µM.

For `C#CC(=O)OCC`, the K in [13] is 105 L/mol/min.

Turning to `CCOc1cc(/C=C/C(=O)C(=Cc2ccc(O)c(OC)c2)C(=O)/C=C/c2ccc(O)c(OCC)c2)ccc1O`, the inhibition in [1] turned out to be 63%; in experiment [2], 96.6%. Also, the values for the 1/IC50 in [3] and in [4] were 0.017 and 0.187, respectively. Besides, the half-maximal inhibitory concentration (IC50) was determined as 60.5 µM in experiment [3], 5.36 µM in experiment [4] and 9.63 µM in the experiment with DLD-1 [5]. Further, the inhibition entry in experiment [7] is “inactive”. Moreover, the result (with DLD-1 [8]; in the experiment on DLD-1 [12]; in [13]) was Active. Moreover, the results for the Activity in the experiment on DLD-1 [9] and with DLD-1 [10] were 9.75 nmol and 4.3 nmol, respectively. In addition, in the experiment on DLD-1 [11], the Ratio came to 2.27.

For the compound `CCOc1cc(C=C(C(=O)/C=C/c2ccc(O)c(OCC)c2)C(=O)/C=C/c2ccc(O)c(OCC)c2)ccc1O`, the inhibition in [1] stood at 50.6%; in experiment [2], 88.5%. In addition, the 1/IC50 in [3] came out at 0.01; in experiment [4], 0.195. Besides, the IC50 in experiment [3] was determined as 96.7 µM; in experiment [4], 5.14 µM; with DLD-1 [5], 1.36 µM. Also, the inhibition entry in [6] and in experiment [7] was “inactive” each time. Also, the Activity with DLD-1 [9] is 3.2 nmol; with DLD-1 [10] it was 0.84 nmol. In the experiment with DLD-1 [11], the Ratio was 3.8. In addition, the result (in the experiment on DLD-1 [12]; in [13]) was Active.

Regarding `CCOc1cc(/C=C/C(=O)C(=Cc2ccc(OC)c(OC)c2)C(=O)/C=C/c2ccc(O)c(OCC)c2)ccc1O`, the inhibition in [1] is 73.5%; in experiment [2], 80.6%. Also, the 1/IC50 is 0.019 in [3] and 0.088 in experiment [4]. In addition, the values for the IC50 (in experiment [3]; in experiment [4]; with DLD-1 [5]) were 53.2 µM, 11.3 µM and 42 µM, respectively. Also, the inhibition result in [6] and in experiment [14] was “Active” throughout. The inhibition result in experiment [7] is “inactive”. For the same compound, the Activity with DLD-1 [9] turned out to be 3.24 nmol; in the experiment with DLD-1 [10], 0.49 nmol. The Ratio in the experiment on DLD-1 [11] was found to be 6.59. The outcome (with DLD-1 [12]; in [13]) was Active.

In the case of `C=CC(=O)OCCCC`, the K in experiment [13] amounted to 8.54 L/mol/min.

Regarding `COc1cc(/C=C/C(=O)C(=Cc2ccc(O)cc2)C(=O)/C=C/c2ccc(O)c(OC)c2)ccc1O`, the inhibition in [1] came out at 73.8%; in experiment [2], 89.2%. Besides, the 1/IC50 turned out to be 0.021 in experiment [3] and 0.158 in [4]. Also, the IC50 worked out at 48.7 µM in experiment [3], 6.32 µM in experiment [4] and 4.08 µM in the experiment on DLD-1 [5]. In addition, in experiment [6], the inhibition result was “Active”. The outcome (in the experiment with DLD-1 [8]; in the experiment on DLD-1 [12]; in [13]) was Active. Further, the Activity with DLD-1 [9] came out at 4.8 nmol; in the experiment with DLD-1 [10] it was 1.2 nmol. In addition, in the experiment with DLD-1 [11], the Ratio is 3.99.

Regarding `CCOc1cc(/C=C/C(=O)C(=Cc2ccc(O)c(O)c2)C(=O)/C=C/c2ccc(O)c(OCC)c2)ccc1O`, the inhibition in experiment [1] turned out to be 81.2%; in experiment [2] it was 98.1%. The 1/IC50 amounted to 0.04 in [3] and 0.275 in experiment [4]. For the same compound, the concentration for half-maximal inhibition (IC50) in experiment [3] came out at 25.2 µM; in [4], 3.63 µM; in the experiment on DLD-1 [5], 5.1 µM. The inhibition entry in experiment [6] and in [7] was “Active” throughout. The Activity in the experiment with DLD-1 [9] is 4.41 nmol; in the experiment on DLD-1 [10], 1.16 nmol. Moreover, the Ratio with DLD-1 [11] is 3.78. Further, the result (in the experiment with DLD-1 [12]; in experiment [13]) was Active.

On to `CCOc1cc(/C=C/C(=O)C(=Cc2ccc(OCC)c(OCC)c2)C(=O)/C=C/c2ccc(O)c(OCC)c2)ccc1O`, for which the inhibition amounted to 69% in experiment [1] and 71.4% in experiment [2]. The 1/IC50 in [3] is 0.016; in experiment [4], 0.049. The concentration for half-maximal inhibition (IC50) in experiment [3] is 61.6 µM; in [4], 20.2 µM; in the experiment with DLD-1 [5] it was 3.45 µM. Moreover, the inhibition entry in experiment [6] and in [7] was “inactive” each time. Besides, the Activity with DLD-1 [9] was determined as 2.12 nmol; in the experiment on DLD-1 [10], 3.24 nmol. Also, the Ratio with DLD-1 [11] was 0.65. The outcome (in the experiment with DLD-1 [12]; in experiment [13]) was Active.

With `CCOc1cc(C=C(C(=O)/C=C/c2ccc(O)c(OC)c2)C(=O)/C=C/c2ccc(O)c(OC)c2)ccc1O`, the inhibition came out at 42.3% in experiment [1] and 94.3% in experiment [2]. The 1/IC50 in [3] came to 0.01; in experiment [4], 0.251. Further, the results for the IC50 (in experiment [3]; in experiment [4]; with DLD-1 [5]) were 123 µM, 3.98 µM and 4.26 µM, respectively. Besides, in experiment [6], the inhibition entry was “Active”. Besides, in experiment [7], the inhibition entry was “inactive”. For the same compound, the result (in the experiment with DLD-1 [8]; in the experiment with DLD-1 [12]; in experiment [13]) was Active. In addition, the Activity was 5.12 nmol in the experiment with DLD-1 [9] and 1.02 nmol with DLD-1 [10]. Besides, in the experiment on DLD-1 [11], the Ratio was determined as 5.
